Assay results published in paper PMC8467532, “DYRK1A Kinase Inhibitors Promote β-Cell Survival and Insulin Homeostasis” (Cells, 2021).

Experiments:
DYRK1A in MIN6 cell line = assay: DYRK1A expression by flow cytometry and confocal imaging; format: cell-based, mouse
Procedure: (§1) The presence of insulin, glucagon, C-peptide, Ki67, and DYRK1A was assessed in MIN6 and INS-1E pancreatic cell lines. Before imaging, cells were seeded onto slides at a density of 1 × 10^5 cells and maintained at 37 °C in 95% atmospheric air and 5% CO2 in a humidified atmosphere for 24 h. After washing with fresh medium, cells were incubated with 5 µM inhibitor solution for 24 h. After this time, the solution was replaced with a culture medium for another 48 h. The cells were fixed. Then after washing and permeabilization, they were incubated with specific antibodies diluted in PBS. Next, the cells were incubated for 10 min with Hoechst33342 (Sigma-Aldrich). After incubation, at 37 °C, in the dark, the cells were washed twice with HBSS (Gibco), the slide was transferred to a microscope table, and the cells were visualized under a Zeiss LSM 880 confocal microscope (Carl Zeiss, Jena, Germany) with a 63× immersion objective. Images were analyzed by Zeiss ZEN Software.
(§2) The presence of insulin, glucagon, C-peptide, Ki67 and DYRK1A was assessed in MIN6 and INS-1E pancreatic cell lines. Before analysis, cells were seeded onto slides at a density of 1 × 10^5 cells and maintained at 37 °C in 95% atmospheric air and 5% CO2 in a humidified atmosphere for 24 h. After washing with fresh medium, cells were incubated with 5 µM inhibitor solution for 24 h. After this time, the solution was replaced with a culture medium for another 48 h. The cells were then detached from the plate using trypsin. The cells were fixed. Then after washing and permeabilization, they were incubated with specific antibodies diluted in PBS. Cells were analyzed with BDAccuri flow cytometer and calculated using FlowJo software (Ashland, Oregon-based FlowJo LLC, a subsidiary of Becton Dickinson).

INS-1E and MIN6 cells [1] = assay: GSIS and insulin, C-peptide, glucagon staining (flow cytometry, confocal); format: cell-based, rat, mouse; parameters: key to insulin+ / glucagon+ / C-peptide+: ↑: moderate; ↑↑: most potent
Procedure: Cells were cultured in a low glucose medium (5.5 mM) for 24 h. After this medium was changed to lower glucose medium (2 mM) for 2 h and then for high glucose medium (25 mM) for 30 min, media were harvested and/or cells were used for further analysis.
as §1, §2

isolated mouse islets = assay: Insulin secretion assay in isolated mouse islets (ELISA, immunostaining); format: cell-based; parameters: key to insulin secretion (ELISA): ↑: moderate; ↑↑: most potent
Procedure: The Insulin ELISA (Ultra Sensitive) was used to quantify insulin levels in control and treated organoids and isolated islets from the mouse pancreas (Crystal Chem, Downers Grove, IL, USA). Islets were homogenized in lysis buffer. Obtained buffer lysates and medium samples (after GSIS) were analyzed for total protein level and subsequently processed following the manufacturer’s protocol.
Mice (male, initially 12 weeks old) were sacrificed by cervical vertebral dislocation. Before starting the incision, their bodies were sprayed with 70% EtOH. A hemostatic clamp was placed on both sides of the small intestine, leaving a small pocket to absorb the collagenase solution into the intestine. Next, 3 mL of cold collagenase solution was introduced into the pancreas through the bile duct. The pancreas was removed from the body and placed in a falcon tube containing 2 mL of collagenase solution. The tube was placed in a water bath at 37 °C. It was incubated for 13 min. At the end of this time, the falcon was shaken vigorously. The collagenase was inactivated with FBS. The sample was centrifuged for 30 s (300× g). This step was repeated 3 times. HBSS was then added to the sample and centrifuged two more times at the same speed as before. After the last centrifugation, HBSS was removed and Percoll (1.045 g/mL) (Sigma-Aldrich) was added. The Percoll solution was left to sediment for 5 min. After this time, the islets were collected from the bottom of the falcon. The step was repeated 3 times. Finally, islets were cultured in RPMI-1640 (Pan Biotech) supplemented with 2 mM L-glutamine (Gibco), 10% fetal bovine serum (FBS) and 1% penicillin/streptomycin and the culture medium was changed daily.
The presence of insulin, C-peptide, glucagon, Pdx-1 and Nkx6.1 was assessed in isolated mouse islets. Islets were fixed in PFA (3.8%) for 30 min, washed with PBS and 0.15% Triton X-100 was added for 1.5 h, then washed again with PBS and samples were transferred to 1% BSA + 0.05% Triton X-100 solution for 3 h. After this time, islets were incubated with primary antibody for 12 h at 4 °C. The secondary antibody was then added for 3 h. Next, the islets were incubated for 10 min with Hoechst33342. After incubation, at 37 °C, in the dark, the samples were washed twice with HBSS, the slide was transferred to a microscope table and the cells were visualized under a Zeiss LSM 880 confocal microscope (Carl Zeiss, Jena, Germany) with a 63× immersion objective. Images were analyzed by Zeiss ZEN Software.

NFAT = NFAT luciferase reporter assay in HEK 293 NFAT cell line expressing DYRK1A; format: cell-based
Procedure: The Renilla luciferase reporter assay was performed in HEK 293 NFAT cell line, constitutively expressing DYRK1A, NFAT and Renilla luciferase under the control of an NFAT-RE promoter. The cells were seeded at 10,000 per well in 96-well white plates (Cellstar, Greiner; Burlington, MA, United States). The following day cells were incubated with the indicated concentration of inhibitor for 30 min, then the medium was changed, and cells were stimulated with 1 μM ionomycin and 10 nM PMA for 5 h. Next, the cell lysate was harvested to measure luciferase activity with Renilla-Glo Luciferase Assay System (Promega, Wisconsin, United States). All experiments were carried out in triplicates.

INS-1E and MIN6 cells [2] = assay: MTT cytotoxicity and cell survival assay, β-cell lines
INS-1E cells = assay: Cell cycle analysis (propidium iodide); format: cell-based, rat; conditions: 5 µM, 24 h
Procedure: To synchronize cell cultures, we used the serum starvation protocol. INS-1E cells were seeded in a 6-well plate in a growth medium with 20% FBS overnight. Then the cultures were rinsed by PBS and change to a serum-free medium. After serum starvation for 24 h, cells were released into the cell cycle by the addition of serum and 5 µM inhibitor solution for 24 h. The cells were then detached from the plate using trypsin. Then after washing, they were incubated with 50 µg/mL propidium iodide for 15 min in the dark. Cells were analyzed with the BDAccuri flow cytometer and calculated using FlowJo software.

[3] = combination with TGF-β inhibitors
[4] = high glucose, day 4 after treatment

Q: Which results are given for `O=c1ccc2cnc3ccc(-c4cn[nH]c4)cc3c2n1-c1ccc(F)cc1C(F)(F)F` [AC27, 1-(4-fluoro-2-(trifluoromethyl)phenyl)-9-(1H-pyrazol-4-yl)benzo[h][1, 6]naphthyridin-2-one]?
A: DYRK1A (fluorescence-positive cells, flow cytometry) (DYRK1A in MIN6 cell line; MIN6, 24 h with inhibitor, control 74%): 33%; DYRK1A signal in confocal imaging (DYRK1A in MIN6 cell line; MIN6, vs untreated control): reduced; glucagon level (INS-1E and MIN6 cells [1]; 5 μM, compound alone): balanced (lower) glucagon level; insulin/C-peptide secretion (INS-1E and MIN6 cells [1]; GSIS, compound alone): higher insulin/C-peptide secretion; C-peptide+ (INS-1E and MIN6 cells [1]; Table 2, Cell lines): ↑↑; glucagon+ (INS-1E and MIN6 cells [1]; Table 2, Cell lines): ↑; insulin+ (INS-1E and MIN6 cells [1]; Table 2, Cell lines): ↑↑; time the effect remained stable (INS-1E and MIN6 cells [1]; after inhibitor action): up to 12 days; glucagon level after GSIS (INS-1E and MIN6 cells [1]; [3]): reduced; insulin/C-peptide secretion (INS-1E and MIN6 cells [1]; [3]): markedly improved; increase in insulin expression (INS-1E and MIN6 cells [1]; discussion statement): more than 60%; insulin secretion (ELISA) (isolated mouse islets; Table 2, Isolated islets): ↑↑; insulin secretion compared with untreated islets (isolated mouse islets; after GSIS): significantly higher; increase in insulin secretion compared with control islets (isolated mouse islets; [4]): 60%; insulin secretion, higher than with harmine (isolated mouse islets; [4]): ca. 15%; percentage of total insulin released (isolated mouse islets; secretion normalized for total insulin content): higher; activity relative to harmine in NFAT assay (NFAT; 1 µM AC27 gives same activity as 10 µM harmine): ~10 times; increase of NFAT activity (NFAT; low concentration range 0.03 µM–1 µM): ≤ 6 fold; concentration without significant toxic effects (INS-1E and MIN6 cells [2]; MTT, 24 h): up to 5 μM; toxicity (INS-1E and MIN6 cells [2]; Table 2, Cell lines): no; number of cells in the G2/M phase (INS-1E cells): increase
